Test results published in patent US12642793B2, “Compositions and methods to treat gastrointestinal diseases and disorders” (CEDARS-SINAI MEDICAL CENTER, priority 2019, dated 2026).

Experiments:
[1] = test system: anaerobes in patient duodenum aspirate; test: Culture of patient duodenum aspirate on blood agar; assay type: cell-based; details: for Blood agar (CFU/mL), Before Rifaximin: With DTT
Description: (§1) Culture: blood agar and MacConkey aerobically, and blood agar anaerobically. […] Culture: MacConkey aerobically and blood agar anaerobically. […] Culture: MacConkey aerobically and blood agar anaerobically. […] Culture: MacConkey aerobically and blood agar anaerobically. […]

[2] = test system: Gram-negative bacteria in patient duodenum aspirate; test: Culture of patient duodenum aspirate on MacConkey agar aerobically; assay type: cell-based; details: for MacConkey agar (CFU/mL), Before Rifaximin: With DTT; for MacConkey agar (CFU/mL), Rifaximin treatment: aerobically
Description: as §1

[3] = Experiment 1, rifaximin dose 0.01 g/mL

Compound | Blood agar (CFU/mL), Before Rifaximin ([1]; Experiment 1) [CFU/mL] | Blood agar (CFU/mL), Before Rifaximin ([1]; Experiment 2) | Blood agar (CFU/mL), Before Rifaximin ([1]; Experiment 3) [CFU/mL] | Blood agar (CFU/mL), Before Rifaximin ([1]; Experiment 4) [CFU/mL] | MacConkey agar (CFU/mL), Before Rifaximin ([2]; Experiment 1) [CFU/mL] | MacConkey agar (CFU/mL), Before Rifaximin ([2]; Experiment 2) [CFU/mL] | MacConkey agar (CFU/mL), Before Rifaximin ([2]; Experiment 3) [CFU/mL] | MacConkey agar (CFU/mL), Before Rifaximin ([2]; Experiment 4) [CFU/mL] | Blood agar (CFU/mL), Rifaximin treatment [1, 3] [CFU/mL] | Blood agar (CFU/mL), Rifaximin treatment ([1]; Experiment 2, rifaximin dose 0.1 g/mL, anaerobically) | Blood agar (CFU/mL), Rifaximin treatment ([1]; Experiment 3, rifaximin dose 0.01 g/mL, anaerobically) [CFU/mL] | Blood agar (CFU/mL), Rifaximin treatment ([1]; Experiment 4, rifaximin dose 0.1 g/mL, anaerobically) [CFU/mL] | MacConkey agar (CFU/mL), Rifaximin treatment [2, 3] [CFU/mL] | MacConkey agar (CFU/mL), Rifaximin treatment ([2]; Experiment 2, rifaximin dose 0.1 g/mL) [CFU/mL] | MacConkey agar (CFU/mL), Rifaximin treatment ([2]; Experiment 3, rifaximin dose 0.01 g/mL) [CFU/mL] | MacConkey agar (CFU/mL), Rifaximin treatment ([2]; Experiment 4, rifaximin dose 0.1 g/mL) [CFU/mL]
O[C@H](CS)[C@H](O)CS (racemic) [DTT, dithiothreitol] | 72000 | too high | 60000 | 1600000 | 4800 | 338000 | 20 | 0 | – | – | – | – | – | – | – | –
CO[C@H]1/C=C/O[C@@]2(C)Oc3c(C)c(O)c4c(O)c(c5c(nc6cc(C)ccn65)c4c3C2=O)NC(=O)/C(C)=C\C=C\[C@H](C)[C@H](O)[C@@H](C)[C@@H](O)[C@@H](C)[C@H](OC(C)=O)[C@@H]1C [Rifaximin, rifaximin] | – | – | – | – | – | – | – | – | 6000 | too high | 800 | 16000 | 4000 | 343000 | 40 | 0
